# Key:
# HCT116 colorectal cells = test: Cell viability assay (CellTiter-Glo) in HCT116 cells; type: cell-based; conditions: Homo sapiens, HCT-116, 72h, CellTiter-Glo, read-out: HCT116 Assay (IC50)
# Procedure: HCT116 colorectal cells were used in these experiments. HCT116 cells were obtained from ATCC. The CellTiter-Glo® Luminescent Cell Viability Assay Reagent was obtained from Promega.
# Into a 96-well plate, 3000 HCT116 cells were seeded with 100 μL of media (McCoy's 5A Medium supplemented with 10% FBS, 100 units penicillin, and 100 μg streptomycin per mL) 24h before the experiment. For compound treatment, the liquid handling system-Pico machine was used to prepare all the compounds. Each master plate contained serial dilution of 2 compounds, including the control compound E7820. 10 mM compound stock was added to each well of the assay plate to give final concentrations of […], 0.003, 0.002 and 0 μM. Each concentration was tested in triplicate. After 72h, cell viability was determined using CellTiter-Glo Luminescent Cell Viability Assay Reagent following the manufacturer's recommended protocol. Briefly, equilibrate the assay plate and its contents at room temperature for approximately 30 minutes. 100 μL of CellTiter-Glo reagent was added to each well of the assay plate and the contents were mixed for 2 minutes at 500 rpm on an orbital shaker to induce cell lysis (Fisherbrand). The plate was incubated at room temperature for 10 minutes to stabilize luminescent signal. Then the plate was immediately placed in a plate reader (PerkinElmer Multimode Plate Reader Envision2105) and the luminescence signal (0.5 second per well integration time) was determined. IC50 values were calculated using Graphpad Prism 9 software.
# Cell viability assays were performed to compare the potency of Compound 1 to Compound 143.
# [1] = General solubility protocol (PBS, pH 7.4); type: physicochemical; conditions: PBS buffer, aqueous buffer, kinetic from dmso stock, pH 7.4, 25° C.
# Procedure: Into a 96-well rack, 15 μL of stock solution (10 mM) of each sample was placed. Into each vial of a cap-less Solubility Sample plate 485 μL of buffer was added. The assay was performed in duplicate. To each vial one stir stick was added and each vial was sealed using a molded PTFE/Silicone plug. The Solubility Sample plate was then transferred to an Eppendorf Thermomixer Comfort plate shaker and shake at 25° C. at 1100 RPM for 2 hours. […] Using a vacuum manifold, all the samples were filtered. An aliquot of 5 μL was taken from the filtrate and 5 μL blank DMSO followed by addition of 490 μL of a mixture of H2O and acetonitrile containing an internal standard (1:1). The dilution factor may be changed according to the solubility value and the LC/MS signal response.
# [2] = Liver microsomes stability, human; type: in vitro ADME; conditions: 1 μM, Table 3, read-out: Metabolic Stability Half-life, human
# Procedure: (§1) A 100 μM test compound solution and PC solution (verapamil) was prepared by adding 2 μL of 10 mM stock solution in DMSO to 198 μL of 50% acetonitrile/50% water.
# (§2) Two separate experiments were performed as follows:
# (§3) a) With Cofactors (NADPH): 25 μL of 10 mM NADPH was added to the incubations. The final concentrations of microsomes and NADPH were 0.5 mg/mL and 1 mM, respectively.
# (§4) b) Without Cofactors (NADPH): 25 μL of 100 mM Phosphate buffer was added to the incubations. The final concentration of microsomes was 0.5 mg/mL. The mixture was pre-warmed at 37° C. for 10 minutes.
# (§5) The reaction was started with the addition of 2.5 μL of 100 µM control compound or test compound solutions. Verapamil was used as positive control in this study. The final concentration of test compound or control compound was 1 μM. The incubation solution was incubated in a water bath at 37° C.
# (§6) Aliquots of 30 μL were taken from the reaction solution at 0.5, 15, 30, 45 and 60 minutes. The reaction was stopped by the addition of 5 volumes of cold acetonitrile with IS (100 nM alprazolam, 200 nM caffeine and 100 nM tolbutamide).
# (§7) Samples were then centrifuged at 3,220 g for 40 minutes. An aliquot of 100 μL of the supernatant was mixed with 100 μL of ultra-pure H2O and then used for LC-MS/MS analysis.
# (§8) Single dose PK parameters were also determined for Compound 143, a deuterated derivative of Compound 1, according to the methods described herein. […] Metabolic stability was assessed by measuring the half-life of the test compounds in human and mouse liver microsomes.
# [3] = Liver microsomes stability, mouse; type: in vitro ADME; conditions: 1 μM, Table 3, read-out: Metabolic Stability Half-life, mouse
# Procedure: as §1, §2, §3, §4, §5, §6, §7, §8
# MDR1 = molecular target: T1, MDR1 (Homo sapiens, UniProt P08183); test: MDCK-MDR1 permeability / efflux assay; type: in vitro ADME, canine; conditions: dog, MDCK-MDR1, pH 7.4, MDCK-MDR1, 1 μM, 2 hours; Table 3; read-out: MDCK-MDR1 Efflux ratio
# T1 construct: expressed in transfected cells; host or cells: MDCK-MDR1 cells (MDCK host)
# Procedure: To prepare transport buffer (HBSS with 10 mM HEPES, pH 7.4), 2.383 g of HEPES and 0.35 g sodium hydrogen carbonate was accurately weighed and added into 900 mL of pure water, then sonicated to dissolve the content. Into the solution was transferred 100 mL of 10×HBSS, and the solution was placed on a stirrer. The pH of the solution was slowly adjusted with sodium hydroxide to 7.4, followed with filtering.
# MDCK-MDR1 plate(s) were removed from the incubator. The monolayer was washed the monolayer twice with pre-warmed HBSS (10 mM HEPES, pH 7.4). Then the plate(s) were incubated at 37° C. for 30 minutes.
# Propranolol was used as the high permeability marker. Digoxin was used as the substrate of […] (MDR1). Stock solutions of test compound(s) and digoxin in DMSO at 0.2 mM were prepared and diluted with HBSS (10 mM HEPES, pH 7.4) to get 1 μM working solutions. Stock solutions of propranolol in DMSO at 1 mM was prepared and diluted with HBSS (10 mM HEPES, pH 7.4) to get 5 μM working solutions.
# To determine the rate of drug transport in the apical to basolateral direction, 125 μL of the working solution was added to the Transwell insert (apical compartment), and a 50 μL sample was immediately transferred from the apical compartment to 200 μL quenching solvents (acetonitrile with 100 nM alprazolam, 200 nM caffeine, 200 nM labetalol and 100 nM tolbutamide) in a new 96-well plate as the initial donor sample (A-B). The plate was shaken at 1000 rpm for 10 minutes. The wells in the receiver plate (basolateral compartment) were filled with 235 μL of transport buffer. All incubations were performed in duplicate.
# To determine the rate of drug transport in the basolateral to apical direction, 285 μL of the 1 μM working solution was added to the receiver plate wells (basolateral compartment), and a 50 μL sample was immediately transferred from the basolateral compartment to 200 μL quenching solvents (acetonitrile with 100 nM alprazolam, 200 nM caffeine, 200 nM labetalol and 100 nM tolbutamide) in a new 96-well plate as the initial donor sample (B-A). Shake the plate at 1000 rpm 10 minutes. The Transwell insert (apical compartment) was filled with 75 μL of transport buffer. The apical to basolateral direction and the basolateral to apical direction were done at the same time.
# The Transwell insert plate was inserted into the basolateral plate, transferred into the incubator and incubated at 37° C. for 2 hours.
# At the end of the incubation, 50 μL samples from donor sides (apical compartment for Ap→Bl flux, and basolateral compartment for Bl→Ap flux) and receiver sides (basolateral compartment for Ap→Bl flux, and apical compartment for Bl→Ap flux) were transferred to wells of a new 96-well plate, followed by the addition of 4 volume of quenching solvents (acetonitrile with 100 nM alprazolam, 200 nM caffeine, 200 nM labetalol and 100 nM tolbutamide). Samples were Vortexed for 10 minutes and then centrifuged at 3,220 g for 40 minutes. An aliquot of 100 μL of the supernatant was mixed with an appropriate volume of ultra-pure water before LC-MS/MS analysis.
# To determine the Lucifer yellow leakage after 2-hour transport period, Lucifer yellow working solutions were prepared by diluting the stock solution with HBSS (10 mM HEPES, pH 7.4) to reach the final concentration of 100 μM. To the apical compartment, 100 μL of the Lucifer yellow solution were added. The plate(s) were incubated at 37° C. for 30 minutes and 80 μL was directly removed from the apical and basolateral wells and transferred to new 96 wells plates. Lucifer yellow fluorescence (to monitor monolayer integrity) was measured in a fluorescence plate reader at 485 nm excitation and 530 nm emission.
# T1 sequence (P08183 whole entry): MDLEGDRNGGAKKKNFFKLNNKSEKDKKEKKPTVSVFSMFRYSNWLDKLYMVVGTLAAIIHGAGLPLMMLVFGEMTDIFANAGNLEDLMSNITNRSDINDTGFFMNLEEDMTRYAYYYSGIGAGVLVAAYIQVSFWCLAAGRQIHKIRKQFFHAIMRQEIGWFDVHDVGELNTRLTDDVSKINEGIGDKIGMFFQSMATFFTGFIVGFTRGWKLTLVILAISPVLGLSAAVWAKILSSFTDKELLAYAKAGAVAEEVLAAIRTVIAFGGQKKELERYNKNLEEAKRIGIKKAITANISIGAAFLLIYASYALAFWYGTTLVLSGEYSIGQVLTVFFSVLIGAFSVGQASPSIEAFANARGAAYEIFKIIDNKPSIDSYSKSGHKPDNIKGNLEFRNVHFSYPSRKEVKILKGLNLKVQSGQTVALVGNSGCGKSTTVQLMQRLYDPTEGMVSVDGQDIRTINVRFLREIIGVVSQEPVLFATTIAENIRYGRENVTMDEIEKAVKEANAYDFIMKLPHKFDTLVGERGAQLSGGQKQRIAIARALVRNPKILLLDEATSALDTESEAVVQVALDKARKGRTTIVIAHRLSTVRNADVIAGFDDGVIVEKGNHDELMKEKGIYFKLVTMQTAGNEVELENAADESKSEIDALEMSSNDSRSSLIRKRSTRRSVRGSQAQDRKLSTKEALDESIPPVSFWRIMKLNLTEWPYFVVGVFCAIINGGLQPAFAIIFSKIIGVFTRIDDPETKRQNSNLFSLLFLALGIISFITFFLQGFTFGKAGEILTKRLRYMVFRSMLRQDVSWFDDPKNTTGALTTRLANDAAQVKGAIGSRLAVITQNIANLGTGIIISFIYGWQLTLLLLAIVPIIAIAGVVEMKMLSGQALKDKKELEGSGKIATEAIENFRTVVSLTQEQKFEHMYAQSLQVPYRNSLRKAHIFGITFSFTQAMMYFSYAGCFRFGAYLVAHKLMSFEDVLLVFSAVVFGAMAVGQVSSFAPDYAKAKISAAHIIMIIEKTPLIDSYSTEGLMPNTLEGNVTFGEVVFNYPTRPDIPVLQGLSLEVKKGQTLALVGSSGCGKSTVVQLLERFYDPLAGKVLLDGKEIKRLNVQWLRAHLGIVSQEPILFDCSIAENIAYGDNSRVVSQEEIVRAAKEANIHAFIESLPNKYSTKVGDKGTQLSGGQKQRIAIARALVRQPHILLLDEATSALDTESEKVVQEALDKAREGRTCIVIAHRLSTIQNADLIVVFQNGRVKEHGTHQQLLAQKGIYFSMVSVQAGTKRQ
SMILES,IC50 (HCT116 colorectal cells) [µM],solubility at 2 h [1] [µM],half-life at 1 µM [2] [h],half-life at 1 µM [3] [h],"efflux ratio at 2 h, 1 µM (MDR1)"
Cc1cc(S(=O)(=O)Nc2ccc(C)c3c(C#N)c[nH]c23)sn1 [Compound 57],< 0.5,294,0.557,1.02,4.84
Cc1ccc(NS(=O)(=O)c2ccn3ccnc3c2)c2[nH]cc(C#N)c12 [Compound 39],,1.24,1.16,0.566,50.1
"Cc1ncc(S(=O)(=O)Nc2ccc(C)c3c(Cl)c[nH]c23)s1 [Compound 20, N-(3-chloro-4-methyl-1H-indol-7-yl)-2-methyl-thiazole-5-sulfonamide]",< 0.5,1.91,0.396,,1.11
"Cc1ncc(S(=O)(=O)Nc2ccc(C)c3c(C#N)c[nH]c23)o1 [Compound 2, N-(3-cyano-4-methyl-1H-indol-7-yl)-2-methyl-oxazole-5-sulfonamide]",< 0.5,292,> 3.85,2.68,6.74

# Source: patent publication US20260116874A1, “HETEROAROMATIC INDOLESULFONAMIDES” (SEED Therapeutics, Inc., priority 2023, published 2026)
